In patent US10758534B2 (Vertex Pharmaceuticals Incorporated, priority 2014, dated 2020) one finds EC30 data, which are given here for 29 compounds.

T1 sequence (P13569 with tags, fused parts or gaps DEL508-508): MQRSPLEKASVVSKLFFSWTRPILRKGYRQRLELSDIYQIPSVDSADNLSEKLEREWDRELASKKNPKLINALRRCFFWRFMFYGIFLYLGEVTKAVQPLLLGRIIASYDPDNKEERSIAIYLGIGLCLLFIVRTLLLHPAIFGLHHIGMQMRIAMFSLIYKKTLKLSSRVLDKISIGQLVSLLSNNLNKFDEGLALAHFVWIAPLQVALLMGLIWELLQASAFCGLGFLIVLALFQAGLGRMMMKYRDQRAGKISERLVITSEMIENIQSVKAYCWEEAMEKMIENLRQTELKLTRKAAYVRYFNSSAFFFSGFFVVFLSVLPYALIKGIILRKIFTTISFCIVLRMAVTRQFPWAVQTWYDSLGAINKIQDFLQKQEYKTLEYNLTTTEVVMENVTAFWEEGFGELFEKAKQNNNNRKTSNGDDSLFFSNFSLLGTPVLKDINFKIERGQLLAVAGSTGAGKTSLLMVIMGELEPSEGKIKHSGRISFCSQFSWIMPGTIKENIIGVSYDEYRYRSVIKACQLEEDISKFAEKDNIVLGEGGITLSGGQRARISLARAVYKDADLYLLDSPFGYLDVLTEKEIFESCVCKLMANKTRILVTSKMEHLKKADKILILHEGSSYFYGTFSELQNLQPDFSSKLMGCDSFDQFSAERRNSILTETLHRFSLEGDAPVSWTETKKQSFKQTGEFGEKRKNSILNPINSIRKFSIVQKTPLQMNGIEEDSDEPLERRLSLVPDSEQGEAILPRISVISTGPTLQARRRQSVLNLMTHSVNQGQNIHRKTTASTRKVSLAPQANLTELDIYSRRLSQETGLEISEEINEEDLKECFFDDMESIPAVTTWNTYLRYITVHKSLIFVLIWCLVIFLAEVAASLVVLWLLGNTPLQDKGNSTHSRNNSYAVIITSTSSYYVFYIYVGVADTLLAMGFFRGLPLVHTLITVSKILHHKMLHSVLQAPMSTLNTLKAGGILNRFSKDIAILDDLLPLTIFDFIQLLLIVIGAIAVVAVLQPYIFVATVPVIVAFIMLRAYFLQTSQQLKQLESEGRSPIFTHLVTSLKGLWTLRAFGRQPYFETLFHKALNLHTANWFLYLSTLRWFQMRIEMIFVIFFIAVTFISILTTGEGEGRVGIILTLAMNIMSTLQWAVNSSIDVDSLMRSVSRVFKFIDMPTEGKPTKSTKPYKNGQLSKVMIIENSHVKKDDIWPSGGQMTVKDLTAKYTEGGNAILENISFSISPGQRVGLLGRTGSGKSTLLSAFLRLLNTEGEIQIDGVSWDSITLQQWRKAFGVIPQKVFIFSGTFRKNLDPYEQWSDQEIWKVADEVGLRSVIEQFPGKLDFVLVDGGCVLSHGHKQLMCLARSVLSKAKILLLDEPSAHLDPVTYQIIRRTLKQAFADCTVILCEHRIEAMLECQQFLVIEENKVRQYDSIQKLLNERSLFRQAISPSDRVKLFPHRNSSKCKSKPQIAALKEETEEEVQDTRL

One assay concerns the target T1, F508del (Homo sapiens, UniProt P13569, DEL508-508).
T1 construct: expressed in transfected cells
The experiment in a line: Protocol 2: FRET membrane potential optical assay (VIPR), identification of correction compounds. As to conditions: F508del CFTR modulator activity; compounds of Table 1; read-out: EC30. Type of assay: cell-based. The procedure, abridged:
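Corrector readout: membrane-potential FRET (CC2-DMPE donor, DiSBAC2(3) acceptor) on VIPR II after Cl⁻-free gluconate bath with 10 μM forskolin and 20 μM genistein. Before this, F508del-expressing NIH3T3 cells were exposed to test compound for 16 h at 37 °C without serum; 27 °C incubation served as temperature-correction control.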
Consider `CC1CN(c2ncccc2C(=O)NS(=O)(=O)c2cccc(Oc3cccc(C(C)C)c3)n2)C(C)(C)C1` (centres unmarked) [Compound 2108, N—[[6-(3-isopropylphenoxy)-2-pyridyl]sulfonyl]-2-(2,2,4-trimethylpyrrolidin-1-yl)pyridine-3-carboxamide], for which the EC30 (usually the concentration at which the effect reaches the 30% level) is < 3 µM.

On to `C[C@@H]1CN(c2nc([C@H]3CC[C@@H](C(F)(F)F)CC3)ccc2C(=O)NS(=O)(=O)c2ccc[nH]c2=O)C(C)(C)C1` [Compound 2315, N-[(2-oxo-1H-pyridin-3-yl)sulfonyl]-6-[4-(trifluoromethyl)cyclohexyl]-2-[(4S)-2,2,4-trimethylpyrrolidin-1-yl]pyridine-3-carboxamide], for which the EC30 is < 3 µM.

In the case of `C[C@@H]1CN(c2nc(-c3cccc(C#N)c3)ccc2C(=O)NS(=O)(=O)c2ccc[nH]c2=O)C(C)(C)C1` [Compound 2185, 6-(3-cyanophenyl)-N-[(2-oxo-1H-pyridin-3-yl)sulfonyl]-2-[(4S)-2,2,4-trimethylpyrrolidin-1-yl]pyridine-3-carboxamide], the EC30 fell in the range of 3 to 10 µM.

On to `CC1CN(c2ncccc2C(=O)NS(=O)(=O)c2cccc(N3CCC(C(F)(F)F)CC3)n2)C(C)(C)C1` (centres unmarked) [Compound 2641, N—[[6-[4-(trifluoromethyl)-1-piperidyl]-2-pyridyl]sulfonyl]-2-(2,2,4-trimethylpyrrolidin-1-yl)pyridine-3-carboxamide], for which the EC30 was < 3 µM.

`CC1CN(c2ncccc2C(=O)NS(=O)(=O)c2cccc(OCc3ccc(F)cc3)n2)C(C)(C)C1` (centres unmarked) [Compound 2524, N—[[6-[(4-fluorophenyl)methoxy]-2-pyridyl]sulfonyl]-2-(2,2,4-trimethylpyrrolidin-1-yl)pyridine-3-carboxamide]: the EC30 was < 3 µM.

Regarding `CCOc1ccccc1-c1cnc(N2CC(C)CC2(C)C)c(C(=O)NS(=O)(=O)c2cccc(N)n2)c1` (centres unmarked) [Compound 2557, N-[(6-amino-2-pyridyl)sulfonyl]-5-(2-ethoxyphenyl)-2-(2,2,4-trimethylpyrrolidin-1-yl)pyridine-3-carboxamide], the EC30 is < 3 µM.

For the compound `COc1cccc(-c2ccc(C(=O)NS(=O)(=O)c3ccc[nH]c3=O)c(N3C[C@@H](C)CC3(C)C)n2)c1F` [Compound 2222, 6-(2-fluoro-3-methoxy-phenyl)-N-[(2-oxo-1H-pyridin-3-yl)sulfonyl]-2-[(4S)-2,2,4-trimethylpyrrolidin-1-yl]pyridine-3-carboxamide], the EC30 was 3 to 10 µM.

As to `CC1CN(c2ncc(-c3ccc(CO)cc3)cc2C(=O)NS(=O)(=O)c2cccc(N)n2)C(C)(C)C1` (centres unmarked) [Compound 2088, N-[(6-amino-2-pyridyl)sulfonyl]-5-[4-(hydroxymethyl)phenyl]-2-(2,2,4-trimethylpyrrolidin-1-yl)pyridine-3-carboxamide], the EC30 lay within 3 to 10 µM.

On to `C/C=C/COc1cccc(S(=O)(=O)NC(=O)c2ccc(C(C)(C)C)nc2N2CC(C)CC2(C)C)n1` (centres unmarked) [Compound 2715], for which the EC30 was < 3 µM.

`CC1CN(c2ncccc2C(=O)NS(=O)(=O)c2cccc(Nc3ccccc3C(F)(F)F)n2)C(C)(C)C1` (centres unmarked) [Compound 2397, N—[[6-[2-(trifluoromethyl)anilino]-2-pyridyl]sulfonyl]-2-(2,2,4-trimethylpyrrolidin-1-yl)pyridine-3-carboxamide]: the EC30 was < 3 µM.

Turning to `CC(C)Cc1ccc(C(=O)NS(=O)(=O)c2ccc[nH]c2=O)c(N2C[C@@H](C)CC2(C)C)n1` [Compound 2467, 6-isobutyl-N-[(2-oxo-1H-pyridin-3-yl)sulfonyl]-2-[(4S)-2,2,4-trimethylpyrrolidin-1-yl]pyridine-3-carboxamide], the EC30 is < 3 µM.

Take `CC(C)OC(=O)N1CC=C(c2cc(C(=O)NS(=O)(=O)c3cccc(N)n3)c(N3C[C@@H](C)CC3(C)C)nc2C(C)(C)C)CC1` [Compound 2027, isopropyl 4-[5-[(6-amino-2-pyridyl)sulfonylcarbamoyl]-2-tert-butyl-6-[(4S)-2,2,4-trimethylpyrrolidin-1-yl]-3-pyridyl]-3,6-dihydro-2H-pyridine-1-carboxylate]: the concentration for an effect of 30% (EC30) is < 3 µM.

Consider `CC1CN(c2ncccc2C(=O)NS(=O)(=O)c2cccc(Nc3cccc(C(F)(F)F)c3)n2)C(C)(C)C1` (centres unmarked) [Compound 2381, N—[[6-[3-(trifluoromethyl)anilino]-2-pyridyl]sulfonyl]-2-(2,2,4-trimethylpyrrolidin-1-yl)pyridine-3-carboxamide], for which the EC30 was < 3 µM.

On to `COc1ccc(-c2ccc(C(=O)NS(=O)(=O)c3cccnc3N)c(N3C[C@@H](C)CC3(C)C)n2)c(C)c1` [Compound 2494, N-[(2-amino-3-pyridyl)sulfonyl]-6-(4-methoxy-2-methyl-phenyl)-2-[(4S)-2,2,4-trimethylpyrrolidin-1-yl]pyridine-3-carboxamide], for which the EC30 was < 3 µM.

With `CCCOc1cccc(S(=O)(=O)NC(=O)c2cccnc2N2CC(C)CC2(C)C)n1` (centres unmarked) [Compound 2528, N-[(6-propoxy-2-pyridyl)sulfonyl]-2-(2,2,4-trimethylpyrrolidin-1-yl)pyridine-3-carboxamide], the concentration for an effect of 30% (EC30) is < 3 µM.

In the case of `CC1CN(c2ncccc2C(=O)NS(=O)(=O)c2cccc(NCc3cccc(Cl)c3)n2)C(C)(C)C1` (centres unmarked) [Compound 2064, N—[[6-[(3-chlorophenyl)methylamino]-2-pyridyl]sulfonyl]-2-(2,2,4-trimethylpyrrolidin-1-yl)pyridine-3-carboxamide], the EC30 is < 3 µM.

As for `CC(C)COc1ccn(-c2ccc(C(=O)NS(=O)(=O)c3cccnc3N)c(N3C[C@@H](C)CC3(C)C)n2)n1` [Compound 2191, N-[(2-amino-3-pyridyl)sulfonyl]-6-(3-isobutoxypyrazol-1-yl)-2-[(4S)-2,2,4-trimethylpyrrolidin-1-yl]pyridine-3-carboxamide], the EC30 was < 3 µM.

Staying with this assay, now noted: Table 3; compounds of Table 1 as modulators of CFTR activity; protocol not stated.
For the compound `CCN(CC)c1ccc(-c2cc(C(=O)NS(=O)(=O)c3ccccc3)n(Cc3c(C)cccc3C)n2)cc1` [Compound 162, N-(benzenesulfonyl)-5-[4-(diethylamino)phenyl]-2-[(2,6-dimethylphenyl)methyl]pyrazole-3-carboxamide], the EC30 result was “+++ (“+++” means <3 uM)”.

As to `CC(C)(C)c1cc(C(=O)NS(=O)(=O)c2cccc(N)c2)n(Cc2cccc3ccccc23)n1` [Compound 295, N-(3-aminophenyl)sulfonyl-5-tert-butyl-2-(1-naphthylmethyl)pyrazole-3-carboxamide], the EC30 result is “++ (“++” means between 3 uM and 10 uM)”.

Take `Cc1cccc(C)c1Cn1nc(-c2ccc(C(F)F)cc2)cc1C(=O)NS(=O)(=O)c1ccccc1` [Compound 119, N-(benzenesulfonyl)-5-[4-(difluoromethyl)phenyl]-2-[(2,6-dimethylphenyl)methyl]pyrazole-3-carboxamide]: the EC30 entry is listed as “+++ (“+++” means <3 uM)”.

As to `Cc1cc(C)c(Cn2nc(C(C)(C)C)cc2C(=O)NS(=O)(=O)c2cccc3c2ccn3CCO)c(C)c1` [Compound 188, 5-tert-butyl-N-[1-(2-hydroxyethyl)indol-4-yl]sulfonyl-2-[(2,4,6-trimethylphenyl)methyl]pyrazole-3-carboxamide], the EC30 result is reported as “+++ (“+++” means <3 uM)”.

`C[C@@H]1CC[C@H](C)N1c1nc(-c2ccc(OCC3(C)CC3)nc2)ccc1C(=O)NS(=O)(=O)c1cccc(N)n1` [Compound 454, N-[(6-amino-2-pyridyl)sulfonyl]-2-[(2S,5R)-2,5-dimethylpyrrolidin-1-yl]-6-[6-[(1-methylcyclopropyl)methoxy]-3-pyridyl]pyridine-3-carboxamide]: the EC30 result was “+++ (“+++” means <3 uM)”.

Regarding `C[C@@H]1CC[C@H](C)N1c1nc(C(C)(C)C)ccc1C(=O)NS(=O)(=O)c1cccc(N)n1` [Compound 373, N-[(6-amino-2-pyridyl)sulfonyl]-6-tert-butyl-2-[(2S,5R)-2,5-dimethylpyrrolidin-1-yl]pyridine-3-carboxamide], the EC30 result was “++ (“++” means between 3 uM and 10 uM)”.

With `Cc1cc(C)c(Oc2nc(-c3cccc(C)n3)ccc2C(=O)NS(=O)(=O)c2cccc(N)n2)c(C)c1` [Compound 730, N-[(6-amino-2-pyridyl)sulfonyl]-6-(6-methyl-2-pyridyl)-2-(2,4,6-trimethylphenoxy)pyridine-3-carboxamide], the EC30 entry is reported as “+++ (“+++” means <3 uM)”.

Turning to `CC(C)c1ccc(-c2nc(C(C)(C)C)ccc2C(=O)NS(=O)(=O)c2cccc(N)c2)cc1` [Compound 314, N-(3-aminophenyl)sulfonyl-6-tert-butyl-2-(4-isopropylphenyl)pyridine-3-carboxamide], the EC30 result is given as “+++ (“+++” means <3 uM)”.

`Cc1cc(C)c(CN2C[C@H](c3ccccc3)C[C@@H]2C(=O)NS(=O)(=O)c2cccc(N)n2)c(C)c1` [Compound 467, (2R,4S)—N-[(6-amino-2-pyridyl)sulfonyl]-4-phenyl-1-[(2,4,6-trimethylphenyl)methyl]pyrrolidine-2-carboxamide]: the EC30 result is “++ (“++” means between 3 uM and 10 uM)”.

Turning to `CC(C)Oc1ccc(-c2ccc(C(=O)NS(=O)(=O)c3cccc(N)n3)c(N3CCCC(CC(F)(F)F)C3)n2)cn1` (centres unmarked) [Compound 656, N-[(6-amino-2-pyridyl)sulfonyl]-6-(6-isopropoxy-3-pyridyl)-2-[3-(2,2,2-trifluoroethyl)-1-piperidyl]pyridine-3-carboxamide], the EC30 entry is “+++ (“+++” means <3 uM)”.

Take `CC(C)COc1cc(F)cc(-c2ccc(C(=O)NS(=O)(=O)c3ccn[nH]3)c(N3CCC(C(C)C)CC3)n2)c1` [Compound 553, 6-(3-fluoro-5-isobutoxy-phenyl)-2-(4-isopropyl-1-piperidyl)-N-(1H-pyrazol-5-ylsulfonyl)pyridine-3-carboxamide]: the EC30 entry was “+++ (“+++” means <3 uM)”.

In the case of `CC1CN(c2nc(-c3ccc(OC(C)C)nc3)ccc2C(=O)NS(=O)(=O)c2cccc(N)n2)CC(C)(C)C1` (centres unmarked) [Compound 520, N-[(6-amino-2-pyridyl)sulfonyl]-6-(6-isopropoxy-3-pyridyl)-2-(3,3,5-trimethyl-1-piperidyl)pyridine-3-carboxamide], the EC30 result is reported as “+++ (“+++” means <3 uM)”.
